In US4124710A, “Acetamidoxime derivatives and use thereof” (priority 1976, dated 1978):
Where a name gives a salt, the structure may show the parent alone.

What was measured:
[1] = system: male rats in which chronic renal hypertension had been induced; test: Fall in arterial pressure in rats rendered hypertensive by the GROLLMAN method (chronic renal hypertension); type: in vivo, rat; details: intragastric; for Fall in A.P.: 25 mg/kg, measured before and 1-6 hours after administration
Experimental: The first test was carried out on male rats weighing about 120g in which chronic renal hypertension had been induced by the Grollman technique [Proc. Soc. exp.
According to this technique, the animals are anaesthetized with ether and one kidney is displaced from its site without being detached from the body, the suprarenal gland having been first liberated from the kidney but otherwise left intact. The kidney is then bound with twine in the form of a figure eight, just tightly enough to alter slightly the ellipsoid shape of the organ. Ten days later, the other kidney is completely removed together with its suprarenal gland.
Arterial pressure was measured immediately before and 1,2,3,4,5 and 6 hours after administration.

[2] = system: hypertensive effect of acetylcholine in dog; test: Ganglioplegic activity: hypertensive effect of acetylcholine in anaesthetized atropinized dog
[3] = system: experimentally induced hypertension; details: rat, in vivo; cited from earlier work
male albino rats = test: Volumetric urinary excretion (technique of LIPSCHITZ et al.); type: in vivo, rat; details: intragastric, 6 hours, % of volume of saline administered
Experimental: 1 -- Volumetric urinary excretion
This test was performed according to the technique of LIPSCHITZ et al. (J. Pharmacol. exp. Therap. 79, 97, 1943), by using groups of 20 male albino rats weighing from 150 to 200g which had been deprived of food and drink for 18 hours.
The substance to be tested was given by intragastric route immediately after the intragastric administration of 50 ml/kg of a 9°/°° solution of NaCl.
A control group also of 20 rats only received the saline solution. The total amount of urine excreted during the 6 hours following administration was collected and measured.

[4] = system: experimentally induced hypertension; test: Experimentally induced hypertension, general statements on anti-hypertensive activity; details: rat, in vivo
Experimental: (§1) All of these tests were performeed on rats which were in a state of hypertension. Each test was divided into two series. In the first series, one single dose of the product under study was administered by intragastric route to each animal and the arterial pressure of the latter was measured every hour for six hours after administration. In the second series the product under study was given by the same route every day for eleven consecutive days and arterial pressure was measured daily throughout this period. The amount of product administered varied from one animal to another.

[5] = system: rats with hypertension of endocrine origin; test: Hypertension of endocrine origin (DOCA; technique of STANTON and WHITE); type: in vivo, rat; details: intragastric
Experimental: as §1
(2) Hypertension of endocrine origin
This test was performed in accordance with the technique of STANTON and WHITE (Arch. Int. Pharmacodyn. 154, 351, 1965).
Female rats weighing 90 ± 10g were anaesthetized with ether and hypertension was produced by ablation of one kidney and the corresponding adrenal gland, after which a dose of 50 mg/kg of desoxycorticosterone acetate (DOCA) was administered subcutaneously five days a week over a period of four weeks. Throughout this period the drinking-water given to the rats contained 1% of NaCl. This was replaced by ordinary tap-water when administration of the desoxycorticosterone ceased.
Under these circumstances, arterial pressure rose to about 200 mm.Hg.

Mouse = test: Acute toxicity in mice; type: in vivo; details: 12 days observation
Experimental: (§2) Finally, acute toxicity trials were carried out on rats and mice which were kept under observation for 12 days following one single administration.

albino male rats = test: Ionic ratio in urinary excretion (technique of AMBROSILI et al.); type: in vivo, rat; details: for Na^+ /K^+ Ratio / K^+ excretion / Na^+ excretion / Urinary excretion: intragastric, 4 hours; for Na^+ /K^+ Ratio: control 1; for K^+ excretion: control 18.5; for Na^+ excretion: control 27.3; for Urinary excretion: control 40
Experimental: 2 -- Ionic ratio in urinary excretion
This test was performed according to the technique of AMBROSILI et al. (Minerva Nepol. 11,56, 1964).
The substance to be tested was given by intragastric route immediately after the intragastric administration of 50 ml/kg of distilled water to groups of 20 albino male rats weighing 140 { 10g which had been fasting for 18 hours.
A control group, also comprising 20 animals, only received the distilled water.
The total amount of urine excreted during the 4 hours following administration was collected and measured and the total Na^+ and K^+ ion excretion values determined.
These values were then converted to millieequivalents per liter (mEq/l.) in order to obtain the correct Na^+ and K^+ ion excretion figures independently of the increase in the amount of urine.
The ionic ratio was obtained according to the following formula: [formula]

[6] = system: rats with saline hypertension; test: Saline hypertension (technique of DAHL, KNUDSEN, HEINE and LEITL); type: in vivo, rat; details: intragastric
Experimental: as §1
This test was performed in accordance with the technique of DAHL, KNUDSEN, HEINE and LEITL.
Male rats weighing 55 ± 5g were fed on food containing 8% of NaCl but which was otherwise normal.
After six weeks of this diet, arterial pressure had risen to about 180 mm.Hg.

[7] = system: rats with neurogenic hypertension; test: Neurogenic hypertension (technique of KRIEGER and IMBS); type: in vivo, rat; details: intragastric
Experimental: as §1
(4) Neurogenic hypertension
This test was performed in accordance with the technique of KRIEGER and IMBS (Circul. Res. 15, 511, 1964 and C.R. Soc. Biol. 162, 778, 1968).
Male rats weighing from 200 to 250g were anaesthetized with ether and 0.5mg of atropine sulphate was administered to them intraperitoneally.
The rats were fixed in a supine position and an incision was made in the front of the neck to expose the neuromuscular bundle comprising the sumpathetic and vagus nerve and the common carotid arteries.
The vagus nerves and the carotid arteries were then carefully isolated while one centimeter was cut out of the sympathetic nerves. […] The area in which the carotids divide was exposed by pulling aside the appropriate neck muscles (sternocleidomastoideus and omohyoideus). The vessels thus liberated were painted with 10% phenol in ethanol. In this way, complete sympathetic denervation was obtained.
A marked rise in arterial pressure was obtained after 5 to 8 days.

[8] = system: nictitating membrane of an anaesthetized cat; test: Ganglioplegic activity: contractions of the nictitating membrane of anaesthetized cat; type: in vivo; details: two intravenous doses of 5 mg/kg
Experimental: (1) The arterial pressure and the tonus of the nictitating membrane of an anaesthetized cat was first noted, after which the contractile reaction of the membrane to an intravenous injection of adrenaline and to electric stimulation of the preganglionic fibre of the cervical sympathetic nerve was tested.

[9] = system: rats with genetic hypertension; test: Genetic hypertension (technique of OKAMOTO and AOKI); type: in vivo, rat; details: for Maximum fall in A.P.: intragastric
Experimental: as §1
This test was performed in accordance with the technique of OKAMOTO and AOKI (Jap. Circul. J., 27, 282, 1963), using male rats belonging to a race which has been specially bred to produce animals having high blood pressure.

Rat = test: Acute toxicity in rats; type: in vivo; details: 12 days observation
Experimental: as §2

## Cc1oc2ccccc2c1CC(=NO)NCCN1CCOCC1 [2-(2-Methyl-3-benzofuranyl)-N-(2-morpholino-ethyl)-acetamidoxime]
[1]
  Fall in A.P.: 25 mm.Hg

## CCCCN(CCCC)CCNC(Cc1c(CC)oc2ccccc12)=NO [2-(2-Ethyl-3-benzofuranyl)-N-(2-di-n-butylamine-ethyl)-acetamidoxime]
[1]
  Fall in A.P.: 27 mm.Hg

## C[N+]1(CC(=O)c2ccc(-c3ccccc3)cc2)[C@@H]2CC[C@H]1C[C@@H](OC(=O)[C@H](CO)c1ccccc1)C2 (stereo partly shown) [phenthonium, reference compound]
[2]; dose not stated, ganglioplegic substance
  effect on the hypertensive effect of acetylcholine: annulled the hypertensive effect of acetylcholine

## CCCN1CCN(C(=N)Cc2c(CC)oc3ccccc23)CC1 [2-(2-ethyl-3-benzofuranyl)-N,N-(3-n-propyl-3-aza-pentamethylene)-acetamidine dihydrochloride, reference compound]
[3]
  activity in the treatment of experimentally induced hypertension: pharmacologically active
[1]; 50 mg/kg
  fall in arterial pressure: 14 mm.Hg
[1]; 200 mg/kg
  fall in arterial pressure: 24 mm.Hg

## CCc1oc2ccccc2c1CC(=NO)NCCN1CCOCC1 [L 9552, 2-(2-ethyl-3-benzofuranyl)-N-(2-morpholino-ethyl)-acetamidoxime]
Male albino rats; 10 mg/kg
  Urinary excretion: 84%
Male albino rats; 20 mg/kg
  Urinary excretion: 102%
Male albino rats; 50 mg/kg
  Urinary excretion: 118%
Male albino rats; 100 mg/kg
  Urinary excretion: 138%
Male albino rats; 200 mg/kg
  Urinary excretion: 165%
[2]; 5 mg/kg intravenous, 1 mg/kg acetylcholine
  effect on the hypertensive effect of acetylcholine: did not alter the hypertensive effect
[4]
  activity in the five types of experimentally induced hypertension: active
[5]; daily doses (11 days) 25 mg/kg
  Maximum fall in A.P.: 15 mm.Hg
[5]; daily doses (11 days) 50 mg/kg
  Maximum fall in A.P.: 30 mm.Hg
[5]; daily doses (11 days) 100 mg/kg
  Maximum fall in A.P.: 49 mm.Hg
[5]; single dose 25 mg/kg
  Maximum fall in A.P.: 18 mm.Hg
[5]; single dose 50 mg/kg
  Maximum fall in A.P.: 26 mm.Hg
[5]; single dose 100 mg/kg
  Maximum fall in A.P.: 45 mm.Hg
[1]
  Fall in A.P.: 36 mm.Hg
[1]; daily doses (11 days) 10 mg/kg
  Maximum fall in A.P.: 18 mm.Hg
[1]; daily doses (11 days) 25 mg/kg
  Maximum fall in A.P.: 32 mm.Hg
[1]; daily doses (11 days) 50 mg/kg
  Maximum fall in A.P.: 47 mm.Hg
[1]; single dose 10 mg/kg
  Maximum fall in A.P.: 14 mm.Hg
[1]; single dose 25 mg/kg
  Maximum fall in A.P.: 36 mm.Hg
[1]; single dose 50 mg/kg
  Maximum fall in A.P.: 55 mm.Hg
Mouse; intragastric
  LD0: 250 mg/kg
  LD95: 1,250 mg/kg
Mouse; intraperitoneal
  LD0: 30 mg/kg
  LD95: 110 mg/kg
Albino male rats; 10 mg/kg
  Na^+ /K^+ Ratio: 1.09
  K^+ excretion: 15.3 mEq/l.
  Na^+ excretion: 24.8 mEq/l.
  Urinary excretion: 55%
Albino male rats; 20 mg/kg
  Na^+ /K^+ Ratio: 1.66
  K^+ excretion: 17.5 mEq/l.
  Na^+ excretion: 43.0 mEq/l.
  Urinary excretion: 80%
Albino male rats; 50 mg/kg
  Na^+ /K^+ Ratio: 2.50
  K^+ excretion: 15.0 mEq/l.
  Na^+ excretion: 55.6 mEq/l.
  Urinary excretion: 95%
Albino male rats; 100 mg/kg
  Na^+ /K^+ Ratio: 3.37
  K^+ excretion: 14.3 mEq/l.
  Na^+ excretion: 71.3 mEq/l.
  Urinary excretion: 137%
Albino male rats; 200 mg/kg
  Na^+ /K^+ Ratio: 3.34
  K^+ excretion: 15.8 mEq/l.
  Na^+ excretion: 78.0 mEq/l.
  Urinary excretion: 124%
Albino male rats; rat, in vivo
  sodium-excretion index: very favourable
[6]; daily doses (11 days) 10 mg/kg
  Maximum fall in A.P.: 13 mm.Hg
[6]; daily doses (11 days) 25 mg/kg
  Maximum fall in A.P.: 26 mm.Hg
[6]; daily doses (11 days) 50 mg/kg
  Maximum fall in A.P.: 53 mm.Hg
[6]; single dose 10 mg/kg
  Maximum fall in A.P.: 14 mm.Hg
[6]; single dose 25 mg/kg
  Maximum fall in A.P.: 27 mm.Hg
[6]; single dose 50 mg/kg
  Maximum fall in A.P.: 54 mm.Hg
[7]; daily doses (11 days) 10 mg/kg
  Maximum fall in A.P.: 17 mm.Hg
[7]; daily doses (11 days) 25 mg/kg
  Maximum fall in A.P.: 35 mm.Hg
[7]; single dose 10 mg/kg
  Maximum fall in A.P.: 18 mm.Hg
[7]; single dose 25 mg/kg
  Maximum fall in A.P.: 37 mm.Hg
[7]; single dose 50 mg/kg
  Maximum fall in A.P.: 56 mm.Hg
[8]
  effect on intensity of contractions of the nictitating membrane (adrenaline, electric stimulation): did not modify the intensity of the contractions of the membrane
[9]; daily doses (11 days) 5 mg/kg
  Maximum fall in A.P.: 0 mm.Hg
[9]; daily doses (11 days) 10 mg/kg
  Maximum fall in A.P.: 26 mm.Hg
[9]; daily doses (11 days) 20 mg/kg
  Maximum fall in A.P.: 47 mm.Hg
[9]; rat, in vivo
  activity in genetic hypertension: especially active
[9]; single dose 5 mg/kg
  Maximum fall in A.P.: 16 mm.Hg
[9]; single dose 10 mg/kg
  Maximum fall in A.P.: 35 mm.Hg
[9]; single dose 20 mg/kg
  Maximum fall in A.P.: 52 mm.Hg
Rat; intragastric
  LD0: 1,100 mg/kg
  LD95: 2,500 mg/kg
Rat; intraperitoneal
  LD0: 80 mg/kg
  LD95: 350 mg/kg

## CCc1oc2ccc(Cl)cc2c1CC(=NO)NCCN1CCOCC1 [2-(2-Ethyl-5-chloro-3-benzofuranyl)-N-(2-morpholino-ethyl)-acetamidoxime]
[1]
  Fall in A.P.: 21 mm.Hg

## NS(=O)(=O)c1cc2c(cc1Cl)NCNS2(=O)=O [hydrochlorothiazide, reference compound]
[1]; 200 mg/kg
  activity in this test: inactive
